Test results as given in patent US20110039947A1, “SURFACE-MODIFIED NANOPARTICLES” (3M Innovative Properties Company, priority 2008, published 2011).

Assay: Pharmaceutical performance: Aerolizer DPI with Next Generation Pharmaceutical Impactor (NGI)
Assay type: physicochemical
Conditions: nominally 2 mg powder, NGI at 60 lpm for 4 seconds, respirable limit 4.5 micrometers
Description: Samples of micronized lactose and micronised budesonide powder were tested in addition to testing samples of nanoparticle-modified lactose and nanoparticle-modified budesonide powders. The NGI was coupled with a USP throat (United States Pharmacopeia, USP 24 <601>Aerosols, Metered Dose Inhalers, and Dry Powder Inhalers) and operated at a volumetric flow rate of 60 liters per minute (lpm) for a collection time of four seconds. A suitable coupler was affixed to the USP throat to provide an air-tight seal between the DPI device and the throat. For all testing, the stage cups of the NGI were coated with a surfactant to prevent particle bounce and re-entrainment. The amount of lactose or budesonide collected on each component of the NGI testing apparatus was determined by rinsing the component with a measured volume of an appropriate solvent and subjecting the rinsed material to high pressure liquid chromatography (HPLC) analysis with charged aerosol detection to determine lactose or budesonide concentration. Data that was returned from HPLC analysis was analyzed to determine the average amount of drug collected on the DPI and capsule, the USP throat, and on each component of the NGI per delivered dose. Using the individual component values, the respirable fraction and delivery efficiency were calculated for each powder sample. […]

SMILES: O.OC[C@H]1O[C@@H](O[C@H]2[C@H](O)[C@@H](O)[C@@H](O)O[C@@H]2CO)[C@H](O)[C@@H](O)[C@H]1O [Comparative Example C4, α-Lactose monohydrate]
- % Delivery Efficiency: 34%
- % Respirable Fraction: 63%
